{"source": "patent US20100004704A1", "about": "“METHOD FOR TREATING A CARDIAC RHYTHM DISTURBANCE” (The Cleveland Clinic Foundation, priority 2008, published 2010)", "system": "open-chest canines", "experiment": "Dobutamine infusion followed by vagal (sinus node fat pad) stimulation, hemodynamics in open-chest canines", "format": "in vivo", "description": "A study was done to assess the effects of dobutamine administration followed by vagal stimulation on sinus tachycardia. The study was done using 4 open-chest canines. Dobutamine was infused at a rate of 2.5-7.5 μg/kg/min to increase the cardiac contractility and the sinus rate at least 30 beats per minute. Vagal nerve stimulation was applied at the epicardial sinus node fat pad, located at the junction of the right pulmonary vein and the right atrium. Vagal stimulation was done with an electrical lead comprising a silicone plate with four platinum electrodes imbedded therein. Rectangular current pulses were delivered with intensity in the range of 1 to 5 mA, duration of pulse in the range of 0.1 ms to 1 ms, and frequency of repetition of the pulses between 20-30 Hz. To avoid tissue polarization, the polarity of consecutive pulses was alternated. Vagal nerve stimulation was administered to slow the sinus rate to the control level. Hemodynamic data was collected and compared in canines during control, during administration of dobutamine, and during both dobutamine and vagal stimulation.", "key": {"[1]": {"conditions": "dobutamine + vagal stimulation at sinus node fat pad"}, "[2]": {"conditions": "dobutamine infused 2.5-7.5 μg/kg/min, no vagal stimulation"}}}
{"compound": "CC(CCc1ccc(O)cc1)NCCc1ccc(O)c(O)c1", "note": "(stereo not drawn) [Dobutamine, dobutamine]", "values": [{"measurement": "RR interval", "setting": "dobutamine 2.5-7.5 μg/kg/min + vagal stimulation at sinus node fat pad (1-5 mA, 0.1-1 ms, 20-30 Hz)", "value": "560 ± 16", "unit": "ms"}, {"measurement": "+dp/dt", "setting": "[1]", "value": "2980 ± 602", "unit": "mmHg/s"}, {"measurement": "CO", "setting": "[1]", "value": "3.6 ± 0.8", "unit": "L/min"}, {"measurement": "DBP", "setting": "[1]", "value": "74 ± 7", "unit": "mmHg"}, {"measurement": "LVEDP", "setting": "[1]", "value": "7.6 ± 1.5", "unit": "mmHg"}, {"measurement": "LVSP", "setting": "[1]", "value": "120 ± 16", "unit": "mmHg"}, {"measurement": "SBP", "setting": "[1]", "value": "126 ± 12", "unit": "mmHg"}, {"measurement": "−dp/dt", "setting": "[1]", "value": "−1897 ± −313", "unit": "mmHg/s"}, {"measurement": "heart rate, systolic blood pressure (SBP), diastolic blood pressure (DBP), left ventricular systolic pressure (LVSP) (and its ±dp/dt), and cardiac output (CO)", "setting": "dobutamine administration vs. control, open-chest canines", "value": "significantly increased"}, {"measurement": "RR interval", "setting": "dobutamine infused 2.5-7.5 μg/kg/min, 4 open-chest canines, no vagal stimulation", "value": "421 ± 36", "unit": "ms"}, {"measurement": "+dp/dt", "setting": "[2]", "value": "3607 ± 861", "unit": "mmHg/s"}, {"measurement": "CO", "setting": "[2]", "value": "4.2 ± 0.9", "unit": "L/min"}, {"measurement": "DBP", "setting": "[2]", "value": "84 ± 7", "unit": "mmHg"}, {"measurement": "LVEDP", "setting": "[2]", "value": "6.9 ± 2.2", "unit": "mmHg"}, {"measurement": "LVSP", "setting": "[2]", "value": "130 ± 13", "unit": "mmHg"}, {"measurement": "SBP", "setting": "[2]", "value": "135 ± 18", "unit": "mmHg"}, {"measurement": "−dp/dt", "setting": "[2]", "value": "−2259 ± −495", "unit": "mmHg/s"}, {"measurement": "sinus rate increase", "setting": "vagal stimulation combined with dobutamine, all other hemodynamic benefits preserved", "value": "eliminated sinus rate increase"}]}
